Where a name gives a salt, the structure may show the parent alone.

We go through 39 compounds from article PMC7589200, “Identification of Putative Non-Substrate-Based XT-I Inhibitors by Natural Product Library Screening” (Biomolecules, 2020).

This assay deals with T1, recombinant human XT-I (Homo sapiens, UniProt Q86Y38).
T1 sequence (Q86Y38 252-959 limits assumed): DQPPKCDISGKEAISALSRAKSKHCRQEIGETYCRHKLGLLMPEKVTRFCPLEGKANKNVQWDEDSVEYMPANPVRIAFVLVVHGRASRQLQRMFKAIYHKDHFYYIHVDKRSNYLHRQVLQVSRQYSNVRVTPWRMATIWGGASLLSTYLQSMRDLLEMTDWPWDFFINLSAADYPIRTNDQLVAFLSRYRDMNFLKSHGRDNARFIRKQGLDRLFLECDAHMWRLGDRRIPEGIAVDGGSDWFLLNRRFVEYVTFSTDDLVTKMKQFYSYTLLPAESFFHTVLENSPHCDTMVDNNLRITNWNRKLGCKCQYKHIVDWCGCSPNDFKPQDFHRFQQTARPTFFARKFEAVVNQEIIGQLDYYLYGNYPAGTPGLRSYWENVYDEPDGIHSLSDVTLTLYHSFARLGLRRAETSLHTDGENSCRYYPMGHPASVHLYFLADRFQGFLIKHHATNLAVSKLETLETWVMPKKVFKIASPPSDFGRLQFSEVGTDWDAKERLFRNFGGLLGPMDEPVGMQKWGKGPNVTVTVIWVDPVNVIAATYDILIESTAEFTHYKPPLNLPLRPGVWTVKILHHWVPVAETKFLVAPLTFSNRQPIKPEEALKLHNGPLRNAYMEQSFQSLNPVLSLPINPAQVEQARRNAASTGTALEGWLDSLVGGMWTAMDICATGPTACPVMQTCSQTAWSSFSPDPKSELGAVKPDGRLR
Description: NP library inhibitor screening, UPLC/ESI-MS/MS XT-I assay. It counts as biochemical. The settings on record: Table S1; 50 μM inhibitor; relative to negative control containing DMSO; technical duplicates.
As to `CC[C@]1(O)C[C@H]2CN(CCc3c([nH]c4ccccc34)[C@@](C(=O)OC)(c3cc4c(cc3OC)N(C=O)[C@H]3[C@@](O)(C(=O)OC)[C@H](OC(C)=O)[C@]5(CC)C=CCN6CC[C@]43[C@@H]65)C2)C1` [Compound 35, Vincristine sulfate], the remaining activity at 50 µM was found to be 87%.

For `OC(Cn1cncn1)(Cn1cncn1)c1ccc(F)cc1F` [Compound 36, Fluconazole], the remaining activity at 50 µM stood at 75%.

Regarding `Oc1ccc(/C=C/c2cc(O)cc(O)c2)cc1` [Compound 37, Resveratrol], the remaining activity at 50 µM turned out to be 51%.

As for `COC(=O)[C@H]1[C@H]2C[C@@H]3c4[nH]c5cc(OC)ccc5c4CCN3C[C@H]2C[C@@H](OC(=O)c2cc(OC)c(OC)c(OC)c2)[C@@H]1OC` [Compound 38, Reserpine], the remaining activity at 50 µM came out at 89%.

In the case of `C[C@H](CCC(=O)O)[C@H]1CC[C@H]2[C@@H]3[C@@H](O)C[C@@H]4C[C@H](O)CC[C@]4(C)[C@H]3CC[C@]12C` [Compound 39, Ursodiol], the remaining activity at 50 µM stood at 98%.

With `O=C(N[C@H](CO)[C@H](O)c1ccc([N+](=O)[O-])cc1)C(Cl)Cl` [Compound 40, Chloramphenicol], the remaining activity at 50 µM was found to be 87%.

For `CO[C@H]1/C=C/O[C@@]2(C)Oc3c(C)c(O)c4c(O)c(c(/C=N/N5CCN(C)CC5)c(O)c4c3C2=O)NC(=O)/C(C)=C\C=C\[C@H](C)[C@H](O)[C@@H](C)[C@@H](O)[C@@H](C)[C@H](OC(C)=O)[C@@H]1C` [Compound 41, Rifampin], the remaining activity at 50 µM was 77%.

As to `Nc1nc2c(ncn2COCCO)c(=O)[nH]1` [Compound 42, Aciclovir], the remaining activity at 50 µM is 71%.

On to `C[C@@H]1CN(c2c(F)c(N)c3c(=O)c(C(=O)O)cn(C4CC4)c3c2F)C[C@H](C)N1` [Compound 43, Sparfloxacin], for which the remaining activity at 50 µM was found to be 89%.

For `C[C@@H]1[C@H](O)[C@@H](C)/C=C/C=C/CC/C=C/C=C/C=C/C=C/[C@H](O[C@H]2O[C@@H](C)[C@H](O)[C@@H](N)[C@H]2O)C[C@@H]2O[C@](O)(C[C@@H](O)[C@H](O)CC[C@@H](O)C[C@@H](O)C[C@@H](O)CC(=O)O[C@H]1C)C[C@H](O)[C@H]2C(=O)O` [Compound 44, Nystatin (Fungicidin)], the “XT-I Activity [%]” value is on record as 52%.

Consider `O=[N+]([O-])c1cn2c(n1)OC[C@@H](OCc1ccc(OC(F)(F)F)cc1)C2` [Compound 45, PA-824], for which the remaining activity at 50 µM came out at 75%.

For the compound `C[C@H]1O[C@H](O[C@H]2[C@H](O)[C@@H](O)[C@@H](O[C@H]3[C@H](O)[C@@H](O)C(O)O[C@@H]3CO)O[C@@H]2CO)[C@H](O)[C@@H](O)[C@@H]1N[C@H]1C=C(CO)[C@@H](O)[C@H](O)[C@H]1O` (stereo partly drawn) [Compound 46, Acarbose], the remaining activity at 50 µM is 92%.

With `COc1c(N2CCNC(C)C2)c(F)cc2c(=O)c(C(=O)O)cn(C3CC3)c12` (stereo not drawn) [Compound 47, Gatifloxacin], the remaining activity at 50 µM amounted to 98%.

For `CN(C)c1cc(NC(=O)CNC(C)(C)C)c(O)c2c1C[C@H]1C[C@H]3[C@H](N(C)C)C(O)=C(C(N)=O)C(=O)[C@@]3(O)C(O)=C1C2=O` [Compound 48, Tigecycline], the remaining activity at 50 µM came out at 59%.

As to `C=CC1=C(C(=O)O)N2C(=O)[C@@H](NC(=O)/C(=N\O)c3csc(N)n3)[C@H]2SC1` [Compound 49, Cefdinir], the remaining activity at 50 µM turned out to be 72%.

For `NC(=O)N/N=C/c1ccc([N+](=O)[O-])o1` [Compound 50, Nitrofural], the remaining activity at 50 µM came to 104%.

Take `Nc1ccc(S(N)(=O)=O)cc1` [Compound 51, Sulfanilamide]: the remaining activity at 50 µM was 118%.

Take `CO/N=C(\C(=O)N[C@@H]1C(=O)N2C(C(=O)OCOC(=O)C(C)(C)C)=C(/C=C\c3scnc3C)CS[C@H]12)c1csc(N)n1` [Compound 52, Cefditoren Pivoxil]: the remaining activity at 50 µM was 104%.

Consider `CC[C@H]1OC(=O)[C@H](C)[C@@H](O[C@H]2C[C@@](C)(OC)[C@@H](O)[C@H](C)O2)[C@H](C)[C@@H](O[C@@H]2O[C@H](C)C[C@H](N(C)C)[C@H]2O)[C@](C)(O)C[C@@H](C)CN(C)[C@H](C)[C@@H](O)[C@]1(C)O` [Compound 53, Azithromycin], for which the remaining activity at 50 µM is 109%.

Take `NC(=O)c1cccnc1` [Compound 54, Nicotinamide (Vitamin B3)]: the “XT-I Activity [%]” value came to 116%.

For `C[C@H]1COc2c(N3CCN(C)CC3)c(F)cc3c(=O)c(C(=O)O)cn1c23` [Compound 55, Levofloxacin], the remaining activity at 50 µM stood at 111%.

For the compound `COc1ccc2[nH]cc(CCNC(C)=O)c2c1` [Compound 56, Melatonin], the remaining activity at 50 µM worked out at 99%.

As to `C[C@@H]1CC[C@H]2[C@@H](C)C(=O)O[C@@H]3O[C@@]4(C)CC[C@@H]1[C@]32OO4` [Compound 57, Artemisinin], the remaining activity at 50 µM turned out to be 93%.

For `O=c1c(-c2ccc(O)cc2)coc2cc(O)cc(O)c12` [Compound 58, Genistein], the remaining activity at 50 µM was 94%.

For `CC(=O)NC[C@H]1CN(c2ccc(N3CCOCC3)c(F)c2)C(=O)O1` [Compound 59, Linezolid], the remaining activity at 50 µM amounted to 103%.

For the compound `Clc1ccccc1C(c1ccccc1)(c1ccccc1)n1ccnc1` [Compound 60, Clotrimazole], the remaining activity at 50 µM was found to be 101%.

On to `Nc1ncnc2c1ncn2[C@@H]1O[C@H](CO)[C@@H](O)[C@H]1O` [Compound 61, Adenosine], for which the remaining activity at 50 µM came to 103%.

Take `C[C@]12CCC(=O)C=C1CC[C@@H]1[C@@H]2[C@@H](O)C[C@@]2(C)[C@H]1CC[C@]2(O)C(=O)CO` [Compound 62, Hydrocortisone]: the remaining activity at 50 µM turned out to be 122%.

In the case of `Nc1ccc(S(=O)(=O)Nc2ncccn2)cc1` [Compound 63, Sulfadiazine], the remaining activity at 50 µM was determined as 108%.

As for `Oc1c(Cl)cc(Cl)c2cccnc12` [Compound 64, Chloroxine], the remaining activity at 50 µM is 121%.

Consider `CC1=CC(=O)c2ccccc2C1=O` [Compound 66, Menadione], for which the remaining activity at 50 µM stood at 106%.

With `COc1cccc2c1C(=O)c1c(O)c3c(c(O)c1C2=O)C[C@@](O)(C(=O)CO)C[C@@H]3O[C@H]1C[C@H](N)[C@H](O)[C@H](C)O1.Cl` [Compound 67, Doxorubicin (Adriamycin) HCl], the “XT-I Activity [%]” value is 113%.

Turning to `C[C@@H](c1ncncc1F)[C@](O)(Cn1cncn1)c1ccc(F)cc1F` [Compound 70, Voriconazole], the remaining activity at 50 µM worked out at 94%.

On to `CCN1CCN(C(=O)N[C@@H](C(=O)N[C@@H]2C(=O)N3C(C(=O)O)=C(CSc4nnnn4C)CS[C@H]23)c2ccc(O)cc2)C(=O)C1=O` [Compound 71, Cefoperazone], for which the remaining activity at 50 µM turned out to be 83%.

Consider `CC1=C(/C=C/C(C)=C/C=C/C(C)=C/C(=O)O)C(C)(C)CCC1` [Compound 72, Tretinoin], for which the remaining activity at 50 µM came out at 84%.

Consider `CC(=O)[C@H]1CC[C@H]2[C@@H]3CCC4=CC(=O)CC[C@]4(C)[C@H]3CC[C@]12C` [Compound 73, Progesterone], for which the remaining activity at 50 µM was found to be 113%.

As to `C[C@H](CCC(=O)O)[C@H]1CC[C@H]2[C@@H]3[C@H](O)C[C@@H]4C[C@H](O)CC[C@]4(C)[C@H]3CC[C@]12C` [Compound 75, Chenodeoxycholic Acid], the remaining activity at 50 µM turned out to be 113%.

For the compound `Cc1ncc([N+](=O)[O-])n1CCO` [Compound 76, Metronidazole], the remaining activity at 50 µM is 109%.

For the compound `COc1c2occc2cc2ccc(=O)oc12` [Compound 77, Methoxsalen], the remaining activity at 50 µM turned out to be 107%.

In general, remaining activity refers to the signal under treatment as a percentage of the control signal.
